Assay results from US6528517B1, “Synthesis of quinobenzoxazine analogues with topoisomerase II and quadruplex interactions for use as antineoplastic agents” (Board of Regents, The University of Texas System, priority 1998, dated 2003).

System: supercoiled pHOT1 DNA
Assay: DNA unwinding assay
Type: biochemical
Settings: concentration shifting topoisomers to the middle position between relaxed and supercoiled bands
Experimental: A 22 μl mixture of 0.25 μg of supercoiled pHOT1 DNA, 5 units of topoisomerase I in topoisomerase I buffer (provided with the kit) was incubated at 37° C. for 30 min. Two μl of various concentrations of drug was added, and the incubation was continued for another 30 min. The reactions were terminated by addition of SDS to 1%. Proteinase K was added to the reaction mixtures to ca. 50 μg/ml, and the reaction mixtures were incubated for 15-20 min at 56° C. After adding 0.1 volume of 10×gel loading buffer, the reaction mixtures were extracted with an equal volume of CIA (Chloroform:isoamyl Alcohol; 24:1). The samples were loaded on an 1% agarous gel that was cast in TPE buffer (36 mM Tris-HCl, pH 7.8, 1 mM EDTA, 30 mM NaH2PO4) and 0.2 μg/ml Chloroquine. The gel was run in TPE buffer at room temperature at 10 volts for 20 h, destained in water for 15 min, stained in 0.05 μg/ml ethidium bromide for 15 min, and destained again in water for 15 min. The gel was then photographed, scanned by FluoroImager, and analyzed by ImageQuaNT software (Molecular Dynamics).

## N[C@H]1CCN(c2c(F)cc3c(=O)c(C(=O)O)cn4c3c2Oc2ccccc2-4)C1 [Compound A-62176, 1-(3-aminopyrrolidin-1-yl)-2-fluoro-4-oxo-4H-quino[2,3,4-i,j][1,4]benzoxazine-5-carboxylic acid, reference compound]
  DNA unwinding concn: 50 µM
